In PMC3865603 (Cancer chemotherapy and pharmacology, 2011):

Experiments:
[1] = system: patients with advanced solid tumors; assay: Phase I dose escalation: safety, DLT, MTD; type: in vivo, human
CYP3A4/5 = conditions: in vitro; cited from earlier work
QTcB interval = assay: 12-lead ECG, QTcB interval; type: in vivo, human; conditions: baseline or pre- vs post-infusion ECGs, cycles 1 and 2
[2] = 20 mg/m^2 (n = 5), treatment-related
[3] = 27 mg/m^2 (n = 4), treatment-related
[4] = 36 mg/m^2 (n = 16), treatment-related
[5] = 42 mg/m^2 (n = 6), treatment-related
[6] = 48 mg/m^2 (n = 2), treatment-related

**Q.** Which results are given for `C/C1=C/C[C@@H](/C(C)=C/c2csc(C)n2)OC(=O)C[C@H](O)C(C)(C)C(=O)[C@H](C)[C@@H](O)[C@@H](C)/C=C/C1` [KOS-1584, (E)-9,10-didehydroepothilone D]?
**A.** Anemia, grade 1/2 [1, 2]: 1 no. of patients; Anorexia, grade 1/2 [1, 2]: 1 no. of patients; Asthenia/fatigue, grade 1/2 [1, 2]: 1 no. of patients; Constipation, grade 1/2 [1, 2]: 1 no. of patients; Diarrhea, grade 1/2 [1, 2]: 1 no. of patients; Lymphopenia, grade 1/2 [1, 2]: 1 no. of patients; Nausea/vomiting, grade 1/2 [1, 2]: 2 no. of patients; Peripheral neuropathy, grade 1/2 [1, 2]: 2 no. of patients; Dyspnea, grade 3 ([1]; 27 mg/m^2 (n = 4), listed as remotely related to study drug): 1 no. of patients; Alopecia, grade 1/2 [1, 3]: 1 no. of patients; Anemia, grade 1/2 [1, 3]: 2 no. of patients; Anorexia, grade 1/2 [1, 3]: 1 no. of patients; Asthenia/fatigue, grade 1/2 [1, 3]: 4 no. of patients; Back pain, grade 1/2 [1, 3]: 1 no. of patients; Chest pain, grade 1/2 [1, 3]: 1 no. of patients; Constipation, grade 1/2 [1, 3]: 1 no. of patients; Diarrhea, grade 1/2 [1, 3]: 1 no. of patients; Dizziness, grade 1/2 [1, 3]: 1 no. of patients; Dry skin/rash, grade 1/2 [1, 3]: 1 no. of patients; Headache, grade 1/2 [1, 3]: 3 no. of patients; Nausea/vomiting, grade 1/2 [1, 3]: 1 no. of patients; Peripheral neuropathy, grade 1/2 [1, 3]: 4 no. of patients; incidence of diarrhea at RP2D, first figure ([1]; 36 mg/m^2): 31%; incidence of diarrhea at RP2D, second figure ([1]; 36 mg/m^2): 6%; Alopecia, grade 1/2 [1, 4]: 4 no. of patients; Anemia, grade 1/2 [1, 4]: 2 no. of patients; Anorexia, grade 1/2 [1, 4]: 3 no. of patients; Arthralgia/myalgia, grade 3 [1, 4]: 1 no. of patients; Asthenia/fatigue, grade 3 [1, 4]: 1 no. of patients; Back pain, grade 1/2 [1, 4]: 1 no. of patients; Back pain, grade 3 [1, 4]: 1 no. of patients; Chest pain, grade 1/2 [1, 4]: 2 no. of patients; Chest pain, grade 3 [1, 4]: 1 no. of patients; Constipation, grade 1/2 [1, 4]: 1 no. of patients; Diarrhea, grade 1/2 [1, 4]: 4 no. of patients; Diarrhea, grade 3 [1, 4]: 1 no. of patients; Dry skin/rash, grade 1/2 [1, 4]: 1 no. of patients; Edema, grade 1/2 [1, 4]: 2 no. of patients; Headache, grade 1/2 [1, 4]: 1 no. of patients; Peripheral neuropathy, grade 1/2 [1, 4]: 11 no. of patients; Thrombocytopenia, grade 1/2 [1, 4]: 1 no. of patients; Abdominal pain, grade 3 [1, 5]: 2 no. of patients; Alopecia, grade 1/2 [1, 5]: 2 no. of patients; Anemia, grade 3 [1, 5]: 1 no. of patients; Anorexia, grade 1/2 [1, 5]: 2 no. of patients; Asthenia/fatigue, grade 1/2 [1, 5]: 3 no. of patients; Asthenia/fatigue, grade 3 [1, 5]: 1 no. of patients; Constipation, grade 3 [1, 5]: 1 no. of patients; Diarrhea, grade 1/2 [1, 5]: 3 no. of patients; Diarrhea, grade 3 [1, 5]: 2 no. of patients; Dizziness, grade 1/2 [1, 5]: 2 no. of patients; Lymphopenia, grade 3 [1, 5]: 1 no. of patients; Nausea/vomiting, grade 1/2 [1, 5]: 3 no. of patients; Neutropenia, grade 3 [1, 5]: 1 no. of patients; Peripheral neuropathy, grade 1/2 [1, 5]: 4 no. of patients; Peripheral neuropathy, grade 3 [1, 5]: 2 no. of patients; Thrombocytopenia, grade 1/2 [1, 5]: 1 no. of patients; Anorexia, grade 1/2 [1, 6]: 1 no. of patients; Arthralgia/myalgia, grade 3 [1, 6]: 1 no. of patients; Asthenia/fatigue, grade 1/2 [1, 6]: 1 no. of patients; Back pain, grade 3 [1, 6]: 1 no. of patients; Nausea/vomiting, grade 3 [1, 6]: 1 no. of patients; Peripheral neuropathy, grade 3 [1, 6]: 1 no. of patients; frequency of all-grade peripheral neuropathy ([1]; RP2D 36 mg/m^2): 69%; frequency of grade ≥3 peripheral neuropathy ([1]; RP2D 36 mg/m^2): 0%; patients who discontinued therapy due to adverse effects ([1]; all cohorts): Five; patients with positive FOBT or hematochezia ([1]; all cohorts): Five; myelosuppression ([1]; heavily pretreated patients): very low incidence of myelosuppression; recommended phase II dose (RP2D) ([1]; iv every 3 weeks): 36 mg/m^2; maximum tolerated dose (MTD) ([1]; iv over 3 h every 3 weeks): 36 mg/m^2; hypersensitivity reactions ([1]; no routine premedication): not associated with any hypersensitivity reactions; inhibition of CYP3A4/5 (CYP3A4/5): potent inhibitor; effect on QTcB interval (QTcB interval): did not show any effects
